“And” between values parts separate entries of the source, which are not always exact repeats. Equal entries are not always repeated.
Columns and labels:
[1] = biological target: T1, DAT (dopamine transporter) (Homo sapiens, UniProt Q01959); experiment: DAT functional assay (fluorescent neurotransmitter transporter uptake); assay type: cell-based; set-up: DAT inhibition, replicates: unit not given here
T1 construct: expressed in transfected cells
Method: The 5‐HTT/DAT functional assays were commissioned by Elsevier Science and Technology Co., Ltd. (Beijing). A fluorescence‐based neurotransmitter assay was conducted using a Neurotransmitter Transporter Uptake Assay Kit (Molecular Devices, R8174), according to the manufacturer's protocol. Flp‐in T‐rex 293 cells transiently expressing the human norepinephrine transporter and HEK293 cells stably expressing the human dopamine or serotonin transporters were seeded in PDL‐coated 384‐well plates and incubated overnight. Subsequently, the medium was removed, and the cells were treated with 16 µL of compounds diluted in assay buffer for 0.5 h at 37 °C. Centanafadine and 0.1% DMSO served as positive and negative controls, respectively. Then, 16 µL of dye mix prepared in 1× Hanks’ Balanced Salt Solution was added to each well and incubated at 37 °C for 1 h. Finally, the data point was acquired via a fluorescence plate reader with excitation at 450 nm and emission at 528 nm.

hERG = biological target: T2, hERG (Homo sapiens, UniProt Q12809); experiment: hERG inhibition (QPatch, CHO-hERG cells); assay type: cell-based
T2 construct: expressed in transfected cells; host or cells: CHO-hERG
T2 sequence (Q12809 whole entry): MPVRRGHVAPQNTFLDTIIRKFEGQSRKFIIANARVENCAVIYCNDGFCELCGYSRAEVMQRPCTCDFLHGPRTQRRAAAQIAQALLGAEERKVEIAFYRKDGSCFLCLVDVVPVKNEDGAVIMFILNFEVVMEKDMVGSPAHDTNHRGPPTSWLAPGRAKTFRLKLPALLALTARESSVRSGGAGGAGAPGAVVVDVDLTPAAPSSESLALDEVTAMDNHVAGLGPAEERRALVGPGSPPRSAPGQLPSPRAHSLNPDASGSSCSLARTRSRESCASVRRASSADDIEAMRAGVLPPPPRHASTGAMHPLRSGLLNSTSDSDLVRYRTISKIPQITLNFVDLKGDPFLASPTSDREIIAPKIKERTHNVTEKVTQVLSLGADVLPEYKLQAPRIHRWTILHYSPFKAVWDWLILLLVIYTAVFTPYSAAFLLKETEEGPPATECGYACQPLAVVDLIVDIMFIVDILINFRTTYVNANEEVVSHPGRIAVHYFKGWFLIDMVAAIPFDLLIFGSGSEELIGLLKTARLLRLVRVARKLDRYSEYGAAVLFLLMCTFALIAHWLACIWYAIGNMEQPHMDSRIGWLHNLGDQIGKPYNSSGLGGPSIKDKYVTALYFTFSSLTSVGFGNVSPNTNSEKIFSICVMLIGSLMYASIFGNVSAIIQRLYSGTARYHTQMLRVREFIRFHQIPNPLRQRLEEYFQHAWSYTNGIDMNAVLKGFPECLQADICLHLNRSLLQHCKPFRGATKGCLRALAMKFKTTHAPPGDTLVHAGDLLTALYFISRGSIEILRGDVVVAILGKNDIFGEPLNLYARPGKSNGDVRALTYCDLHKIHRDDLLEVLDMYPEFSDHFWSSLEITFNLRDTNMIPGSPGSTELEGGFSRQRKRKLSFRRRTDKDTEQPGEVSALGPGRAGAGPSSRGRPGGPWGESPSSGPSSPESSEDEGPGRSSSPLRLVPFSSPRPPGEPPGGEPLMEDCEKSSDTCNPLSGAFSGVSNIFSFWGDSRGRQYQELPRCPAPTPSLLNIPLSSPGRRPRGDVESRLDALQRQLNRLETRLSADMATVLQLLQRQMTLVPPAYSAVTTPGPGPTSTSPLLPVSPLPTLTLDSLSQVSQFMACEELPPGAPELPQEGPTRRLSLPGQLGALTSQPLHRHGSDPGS
Method: CHO‐hERG cells were cultured to 60–80% confluency in 175‐cm^2 flasks, washed with PBS, and digested with detachin. After centrifugation, the cells were resuspended in medium at 2–5×10^6 mL^−1. Patch‐clamp recordings were performed using a QPatch with extracellular solution (140 NaCl, 5 KCl, 2 CaCl2, 1 MgCl2, 10 HEPES, 10 glucose, pH 7.4) and intracellular solution (145 KCl, 1 MgCl2, 5 EGTA, 10 HEPES, 5 Mg‐ATP, pH 7.3). Cells were clamped at −80 mV, stimulated with a 50 ms pre‐pulse to −50 mV, followed by 2 s depolarization to +40 mV, and 2 s repolarization to −50 mV, repeated every 5 s. After baseline recording, the test compound at various concentrations or 300 nM cisapride (positive control) was applied.

Kir4.1 cKO astrocytes = experiment: Patch clamp of Kir4.1 cKO primary astrocytes; assay type: cell-based, mouse; settings: tamoxifen-treated Kir4.1 cKO astrocytes, 3 µM
Method: Astrocytes were isolated and cultured as previously described.^[ [16] ^] Briefly, the cortices from P1‐P4 mouse pups were dissected and incubated for 25 min in Hank's Balanced Salt Solution (22.5 ml) with 2.5% trypsin (2.5 ml) at 37 °C. Cells were dissociated in cultured medium (DMEM/F12 supplemented with 10% fetal bovine serum and 1% penicillin and streptomycin) and filtered with a 70‐µm cell strainer. Cell suspensions were cultured in PDL‐pretreated 75‐cm^2 flasks for the initial seven days, with half of the medium replaced every 2 days. Subsequently, the cultures were shaken at 220 rpm for 6 h at 37 °C to remove microglia and oligodendrocytes from the astrocyte layers. […]
Whole‐cell patch‐clamp recordings were obtained either in transiently transfected CHO‐K1 cells or in primary cultured astrocytes at room temperature using standard patch‐clamp techniques with an Axopatch‐700B amplifier (Axon Instruments). […] Macroscopic currents generated by expressed potassium channels were recorded under the voltage‐clamp conditions with an internal pipette solution composed of (in mM): 140 KCl, 5 NaCl, 1 CaCl2, 1 MgCl2, 10 HEPES, and 10 EGTA, pH 7.2 adjusted with KOH. […] Astrocytic resting membrane potentials were recorded under current‐clamp conditions (I = 0 pA) using standard internal and external solutions, determined immediately after achieving whole‐cell mode.

C57BL/6J mice = experiment: Seizure threshold measurement in 6-Hz seizure test; assay type: in vivo; set-up: key to seizure incidence, Multiple dose-6 Hz / seizure incidence, Single dose-6 Hz: % of mice showing seizures; settings: for seizure incidence, Multiple dose-6 Hz / seizure incidence, Single dose-6 Hz: JX3212 10 mpk
Description: Male C57BL/6J mice were subjected to corneal electroshock stimulation using a Grass S48 stimulator (Grass Technologies) with standardized parameters: frequency, 6 Hz; rectangular pulse width, 0.2 ms; and duration, 3 s. Seizure activity was operationally defined as the occurrence of any of the following behaviors: forelimb clonus, postictal immobility, facial myoclonus, staring behavior, orofacial automatization (chewing/unilateral pawing), or Straub tail posture. […] The seizure incidence was compared between the vehicle‐ and JX3212‐treated groups, with the CS50 threshold calculated as the minimal current intensity required to induce seizures in 50% of the subjects via probit analysis.

mice = experiment: Shuttle box test (SBT); assay type: in vivo
Method: This test was designed to measure learning and memory function in rodents. The shuttle box consists of two compartments connected by a freely passable gate. The mice were allowed to explore the test chamber freely for 5 min before the test to eliminate exploratory reflexes. Each mouse was placed in one compartment of the shuttle box. The conditioning protocol began with a 5‐s conditioned stimulus presentation of light (200 lux) and auditory tone (100 dB, 1000 Hz), followed immediately by a 3‐s footshock (300 µA) unconditioned stimulus. Escape to the opposite compartment during the conditioned stimulus presentation was scored as an active avoidance response, whereas escape occurring only after shock onset was recorded as […]. […] Each test session consisted of 40 trials with 10‐s inter‐trial intervals, with the number of active avoidance responses systematically recorded.

T1 sequence (Q01959 whole entry): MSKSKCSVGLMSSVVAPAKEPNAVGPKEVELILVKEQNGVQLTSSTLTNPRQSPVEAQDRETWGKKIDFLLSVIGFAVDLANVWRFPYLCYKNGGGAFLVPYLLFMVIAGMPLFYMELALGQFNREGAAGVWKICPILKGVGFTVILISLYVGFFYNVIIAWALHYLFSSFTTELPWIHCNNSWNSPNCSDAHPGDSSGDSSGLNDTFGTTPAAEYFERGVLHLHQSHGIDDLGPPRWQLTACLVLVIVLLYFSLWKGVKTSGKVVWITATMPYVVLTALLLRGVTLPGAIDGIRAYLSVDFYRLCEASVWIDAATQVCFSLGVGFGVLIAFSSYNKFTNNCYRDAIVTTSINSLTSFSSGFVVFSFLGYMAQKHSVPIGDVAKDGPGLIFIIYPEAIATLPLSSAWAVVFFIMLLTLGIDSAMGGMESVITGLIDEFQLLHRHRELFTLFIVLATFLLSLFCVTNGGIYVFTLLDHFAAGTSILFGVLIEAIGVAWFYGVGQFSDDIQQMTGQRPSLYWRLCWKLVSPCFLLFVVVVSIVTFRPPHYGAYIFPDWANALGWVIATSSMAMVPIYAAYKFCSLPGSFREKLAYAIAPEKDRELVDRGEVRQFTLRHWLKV

c1ccc2c(c1)oc1ccc(Nc3ccnc(NCCCN4CCOCC4)n3)cc12 [JX3212, N^4-(dibenzo[b,d]furan-2-yl)-N^2-(3-morpholinopropyl)pyrimidine-2,4-diamine]
IC50 [1]: 5.2 µM | DAT inhibition, replicates ([1]; concentration 3): -3.23 and -17.79 | DAT inhibition, replicates ([1]; concentration 10): -5 and -8.74 | DAT inhibition, replicates ([1]; concentration 30): 1.89 and -0.08 | DAT inhibition, replicates ([1]; concentration 100): -1.46 and -1.85 | DAT inhibition, replicates ([1]; concentration 300): -3.23 and -0.87 | DAT inhibition, replicates ([1]; concentration 1000): 32 | DAT inhibition, replicates ([1]; concentration 3000): 70.17 and 28.06 | DAT inhibition, replicates ([1]; concentration 10000): 80.01 and 56.79 | DAT inhibition, replicates ([1]; concentration 30000): 99.88 and 90.83 | DAT inhibition, replicates ([1]; concentration 100000 (unit not given)): 110.9 and 109.92 | IC50 (hERG): 1.02 µM | JX3212-induced effects in Kir4.1 cKO astrocytes (in words) (Kir4.1 cKO astrocytes): abolished | seizure susceptibility, 6-Hz seizure model (in words) (C57BL/6J mice; 10 mg kg−1, single or 14-day consecutive administration): did not alter seizure susceptibility | seizure incidence, Multiple dose-6 Hz (C57BL/6J mice; stimulus 18 mA): 25 | seizure incidence, Multiple dose-6 Hz (C57BL/6J mice; stimulus 20 mA): 50 | seizure incidence, Single dose-6 Hz (C57BL/6J mice; stimulus 20 mA): 22.22 | seizure incidence, Multiple dose-6 Hz (C57BL/6J mice; stimulus 22 mA): 75 | seizure incidence, Single dose-6 Hz (C57BL/6J mice; stimulus 22 mA): 50 | seizure incidence, Single dose-6 Hz (C57BL/6J mice; stimulus 24 mA): 57.14 | seizure incidence, Multiple dose-6 Hz (C57BL/6J mice; stimulus 26 mA): 87.5 | seizure incidence, Single dose-6 Hz (C57BL/6J mice; stimulus 26 mA): 85.71 | shuttle box active avoidance responses (in words) (mice; chronic 10 mg kg−1 per day): no significant differences | SBT active avoidance responses, single mice (mice; chronic 10 mg/kg per day (Fig 5G)): 22 and 29 and 31 and 32 and 21 and 24 and 28 and 25
